The source made the active and inactive calls. For most assays here, no stated cut-off is given here; in the data, actives have a measured EC50 and inactives only a lower limit.
Assays:
[1] = Luminescence Cell-Based Dose Retest to Confirm Inhibitors of Cancer Stem Cells. [Related pubchem assays (depositor defined):AID2717, AID2721]; assay type: functional; details: Homo sapiens
Cytochrome P450 2D6 = Cytochrome P450 2D6 (Homo sapiens, UniProt P10635);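 further: CYP2D6 member of a cytochrome P450 panel assay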
[2] = Luminescence Cell-Based Dose Response HTS to Identify Inhibitors of 5'UTR Stem-Loop Driven Prion Protein mRNA Translation in H4 Neuroglioblastoma Cells. [Related pubchem assays: 1827 (Project Summary), 1813 (Primary HTS)]; assay type: functional
[3] = inhibitors of firefly luciferase expression or activity, dose response, H4 neuroglioma cells, luminescence (AID 1990); assay type: functional, cell-based
[4] = target: T1, Heat shock factor protein 1 (Mus musculus, UniProt P38532); assay: inhibition of MG132-induced HSE-luciferase signal, confirmation, cell-based, NIH3T3, luminescence, dose retest (AID 2382); assay type: functional;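 further: NIH3T3 fibroblasts with HSF1-driven luciferase reporter stressed by proteasome inhibitor MG132; luminescence from HSF1-driven luciferase expression after 8 hours of MG132 stress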
T1 sequence (P38532 whole entry): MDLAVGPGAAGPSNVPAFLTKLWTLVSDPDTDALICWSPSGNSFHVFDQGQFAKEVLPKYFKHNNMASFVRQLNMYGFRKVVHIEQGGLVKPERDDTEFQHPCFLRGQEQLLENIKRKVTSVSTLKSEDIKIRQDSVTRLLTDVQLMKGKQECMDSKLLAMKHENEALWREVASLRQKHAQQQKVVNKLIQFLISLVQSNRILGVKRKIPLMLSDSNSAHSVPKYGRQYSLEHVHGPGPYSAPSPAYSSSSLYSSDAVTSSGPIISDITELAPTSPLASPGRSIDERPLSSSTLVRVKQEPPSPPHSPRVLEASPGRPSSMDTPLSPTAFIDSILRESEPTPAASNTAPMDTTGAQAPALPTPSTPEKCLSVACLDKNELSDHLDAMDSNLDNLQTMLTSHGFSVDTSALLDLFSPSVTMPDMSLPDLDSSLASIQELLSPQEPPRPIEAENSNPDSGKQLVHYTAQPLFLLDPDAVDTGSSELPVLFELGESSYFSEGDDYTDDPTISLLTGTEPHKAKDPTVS

[5] = inhibitors of SNCA 5'UTR-driven reporter translation, confirmation, H4 neuroglioma cells, luminescence (AID 1988); assay type: functional, cell-based
[6] = target: T2, Corticotropin-releasing factor receptor 2/Corticotropin-releasing factor-binding protein (Homo sapiens, UniProt P24387+Q13324); assay: Dose Response confirmation of uHTS hits for small molecule antagonists of the CRF-binding protein and CRF-R2 receptor complex.; assay type: functional; details: read-out: IC50_Mean
T2 sequence (Q13324 whole entry): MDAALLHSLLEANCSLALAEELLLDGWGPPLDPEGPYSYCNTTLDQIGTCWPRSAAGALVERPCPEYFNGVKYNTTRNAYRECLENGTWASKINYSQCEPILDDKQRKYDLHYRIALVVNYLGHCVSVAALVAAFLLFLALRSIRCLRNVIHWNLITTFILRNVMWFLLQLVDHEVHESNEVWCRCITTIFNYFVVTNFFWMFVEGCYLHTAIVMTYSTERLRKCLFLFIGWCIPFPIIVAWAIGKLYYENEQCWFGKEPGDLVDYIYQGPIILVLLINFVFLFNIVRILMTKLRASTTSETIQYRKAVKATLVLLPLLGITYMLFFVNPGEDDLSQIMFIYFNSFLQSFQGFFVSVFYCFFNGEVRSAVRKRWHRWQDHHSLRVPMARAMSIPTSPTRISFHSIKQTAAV
T2 sequence (P24387 whole entry): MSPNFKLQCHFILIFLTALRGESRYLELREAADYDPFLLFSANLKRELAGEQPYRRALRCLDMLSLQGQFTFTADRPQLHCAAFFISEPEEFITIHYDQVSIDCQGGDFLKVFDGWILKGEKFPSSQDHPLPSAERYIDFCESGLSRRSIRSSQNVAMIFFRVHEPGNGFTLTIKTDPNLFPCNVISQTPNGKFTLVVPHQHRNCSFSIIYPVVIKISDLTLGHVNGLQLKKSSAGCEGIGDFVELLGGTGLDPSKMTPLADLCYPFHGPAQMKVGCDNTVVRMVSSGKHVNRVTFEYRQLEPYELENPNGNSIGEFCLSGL

[7] = target: T2, Corticotropin-releasing factor receptor 2/Corticotropin-releasing factor-binding protein; assay: activators of CRF receptor 2 with binding protein – uHTS hits, confirmation (AID 602473); assay type: functional; details: read-out: EC50_Mean
[8] = HEp-2 cell cytotoxicity, dose response, cytotoxicity control for RSV inhibitor project, HTS (AID 2410); assay type: functional; details: human respiratory syncytial virus
Protein RecA = target: T3, Protein RecA (Mycobacterium tuberculosis, UniProt P9WHJ3); assay: Fluorescence Cell-Free Homogeneous Dose Retest to Identify Inhibitors of RecA-Intein Splicing Activity. [Related pubchem assays (depositor defined):AID2097, AID2223, AID489010, AID492950]; assay type: functional
T3 sequence (P9WHJ3 whole entry): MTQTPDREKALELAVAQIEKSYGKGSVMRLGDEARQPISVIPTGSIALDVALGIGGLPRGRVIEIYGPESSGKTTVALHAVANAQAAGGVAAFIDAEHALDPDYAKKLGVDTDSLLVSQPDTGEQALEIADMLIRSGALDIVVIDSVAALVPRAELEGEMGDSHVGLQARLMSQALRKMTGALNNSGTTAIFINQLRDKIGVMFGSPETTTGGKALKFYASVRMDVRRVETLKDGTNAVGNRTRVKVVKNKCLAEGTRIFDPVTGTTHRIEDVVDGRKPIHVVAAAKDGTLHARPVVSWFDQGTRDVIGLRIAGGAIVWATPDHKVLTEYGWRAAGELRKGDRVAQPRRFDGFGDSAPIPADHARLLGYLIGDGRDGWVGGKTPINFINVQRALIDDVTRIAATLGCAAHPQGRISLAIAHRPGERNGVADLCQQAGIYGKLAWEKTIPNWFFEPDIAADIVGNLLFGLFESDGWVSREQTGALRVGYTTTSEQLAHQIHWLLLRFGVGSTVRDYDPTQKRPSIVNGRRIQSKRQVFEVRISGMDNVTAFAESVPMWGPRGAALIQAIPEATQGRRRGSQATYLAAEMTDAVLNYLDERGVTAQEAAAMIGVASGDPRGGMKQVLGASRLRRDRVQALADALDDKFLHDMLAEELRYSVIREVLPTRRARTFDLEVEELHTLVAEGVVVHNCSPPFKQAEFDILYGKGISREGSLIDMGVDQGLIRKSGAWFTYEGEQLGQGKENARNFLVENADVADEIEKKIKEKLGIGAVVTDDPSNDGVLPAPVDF

[9] = target: T4, Replicative DNA helicase DnaB (Mycobacterium tuberculosis, UniProt P9WMR3); assay: DnaB intein splicing inhibitors, dose response, biochemical, cell-free fluorescence (AID 449749); assay type: functional
T4 sequence (P9WMR3 whole entry): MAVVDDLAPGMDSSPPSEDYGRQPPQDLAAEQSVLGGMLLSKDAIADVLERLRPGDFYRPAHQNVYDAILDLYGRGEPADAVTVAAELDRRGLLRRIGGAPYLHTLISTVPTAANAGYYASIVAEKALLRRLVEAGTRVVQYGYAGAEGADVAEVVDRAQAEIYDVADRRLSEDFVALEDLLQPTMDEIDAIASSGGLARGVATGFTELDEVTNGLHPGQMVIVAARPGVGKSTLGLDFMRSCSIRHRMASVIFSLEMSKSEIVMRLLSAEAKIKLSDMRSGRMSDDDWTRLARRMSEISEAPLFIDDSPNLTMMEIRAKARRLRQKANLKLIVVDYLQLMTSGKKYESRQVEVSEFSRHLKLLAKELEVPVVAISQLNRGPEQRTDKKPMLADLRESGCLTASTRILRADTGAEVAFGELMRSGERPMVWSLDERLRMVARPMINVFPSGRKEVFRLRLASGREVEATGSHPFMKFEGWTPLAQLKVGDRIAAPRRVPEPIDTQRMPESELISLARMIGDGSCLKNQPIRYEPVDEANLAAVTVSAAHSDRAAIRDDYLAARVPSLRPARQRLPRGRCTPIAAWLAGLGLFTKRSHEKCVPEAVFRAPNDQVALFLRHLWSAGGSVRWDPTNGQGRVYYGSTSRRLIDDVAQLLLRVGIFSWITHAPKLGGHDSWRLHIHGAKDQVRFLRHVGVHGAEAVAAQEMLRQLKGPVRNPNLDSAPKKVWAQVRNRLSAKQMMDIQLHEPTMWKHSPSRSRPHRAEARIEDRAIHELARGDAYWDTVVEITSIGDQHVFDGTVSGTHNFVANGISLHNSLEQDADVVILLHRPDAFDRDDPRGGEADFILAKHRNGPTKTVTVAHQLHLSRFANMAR

Cytochrome P450 2C9 = Cytochrome P450 2C9 (Homo sapiens, UniProt P11712)
[10] = cytotoxicity toward NIH3T3 fibroblasts, dose response, counter-screen, cell-based, ATP luminescence, mouse fibroblasts (AID 2010); assay type: functional;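 further: cells exposed to compound for about 90 hours before reading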
[11] = inhibitors of intracellular T. cruzi replication, confirmation, NIH3T3 host cells, beta-gal luminescence (AID 2044); assay type: functional, cell-based;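 further: intracellular parasites grown in NIH/3T3 mouse fibroblasts as host cells; luminescent beta-galactosidase reporter signal from transgenic T. cruzi replicating inside host cells; inhibitors lower the luminescence signal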

Sequence of Cytochrome P450 2D6 (P10635 whole entry): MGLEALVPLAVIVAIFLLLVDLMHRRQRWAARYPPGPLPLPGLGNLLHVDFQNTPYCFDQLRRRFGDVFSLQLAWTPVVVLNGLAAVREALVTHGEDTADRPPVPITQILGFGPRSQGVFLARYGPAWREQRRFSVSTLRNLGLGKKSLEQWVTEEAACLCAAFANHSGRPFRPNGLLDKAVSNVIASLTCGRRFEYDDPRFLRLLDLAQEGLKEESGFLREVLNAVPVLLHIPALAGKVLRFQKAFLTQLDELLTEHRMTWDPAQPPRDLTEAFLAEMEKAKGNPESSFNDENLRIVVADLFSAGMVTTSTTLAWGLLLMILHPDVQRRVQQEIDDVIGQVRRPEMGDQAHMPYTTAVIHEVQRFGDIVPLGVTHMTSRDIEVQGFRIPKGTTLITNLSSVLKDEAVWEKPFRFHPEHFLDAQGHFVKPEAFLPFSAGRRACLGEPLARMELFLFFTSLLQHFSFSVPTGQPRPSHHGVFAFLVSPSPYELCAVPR
Sequence of Cytochrome P450 2C9 (P11712 whole entry): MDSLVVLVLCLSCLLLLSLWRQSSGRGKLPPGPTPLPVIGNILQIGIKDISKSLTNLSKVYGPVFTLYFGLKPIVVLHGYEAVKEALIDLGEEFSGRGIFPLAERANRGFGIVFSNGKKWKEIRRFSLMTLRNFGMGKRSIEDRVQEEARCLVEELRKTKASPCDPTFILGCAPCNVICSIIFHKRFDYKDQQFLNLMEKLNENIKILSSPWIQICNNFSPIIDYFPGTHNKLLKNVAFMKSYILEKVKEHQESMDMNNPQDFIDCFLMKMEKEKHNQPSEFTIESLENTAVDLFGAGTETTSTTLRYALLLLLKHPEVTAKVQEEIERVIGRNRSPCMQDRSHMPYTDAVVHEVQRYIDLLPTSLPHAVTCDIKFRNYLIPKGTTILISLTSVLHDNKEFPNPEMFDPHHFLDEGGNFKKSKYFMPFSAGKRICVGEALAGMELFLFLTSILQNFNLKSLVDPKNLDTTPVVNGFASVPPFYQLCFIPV

Nc1ccc(CCN2CCN(c3cccc(C(F)(F)F)c3)CC2)cc1
AC50 [1]: 1.35 µM (active)
AC50 (Cytochrome P450 2D6): 12.6 µM (inconclusive)

COCCN(Cc1ccccc1)C(S)=Nc1ccc(Cl)cc1
EC50 [2]: > 120 µM (not active)
EC50 [3]: > 120 µM (not active)
EC50 [4]: 30.3 µM (active)
EC50 [5]: 16.8 µM (active)

CCOc1ccccc1NC(=O)C1CCCN1S(=O)(=O)c1ccccc1C(F)(F)F (stereo unspecified)
IC50 [6]: > 47.1 µM (inactive)
EC50 [7]: > 53 µM (inactive)

CCOc1ccc(S(=O)(=O)N2CCC(C(=O)NCC(=O)Nc3cccc(Cl)c3C)CC2)cc1
CC50 [8]: 49.1 µM (active)

CCC(=O)c1cc(F)c(N2CCN(C(=O)Cc3ccccc3)CC2)cc1C
CC50 [8]: 17 µM (active)

COc1cccc(Nc2ncc(C#N)c(N)n2)c1
EC50 [2]: 14.2 µM (active)
EC50 [3]: 16.4 µM (active)
EC50 [5]: 14.5 µM (active)

CCc1ccc(CNn2cnnc2SCC(=O)NC(C)(C)C)cc1
EC50 [2]: > 120 µM (not active)
EC50 [3]: > 120 µM (not active)
EC50 [5]: > 120 µM (not active)

CC(C)(C)c1cc(C(=O)O)nn1-c1ccccc1
IC50 [6]: > 47.1 µM (inactive)
EC50 [7]: > 53 µM (inactive)

COc1ccc(OCCCC(=O)Nc2cccnc2)cc1
IC50 [6]: > 47.1 µM (inactive)
EC50 [7]: > 53 µM (inactive)

c1ccc(Sc2ncnc3ccccc23)cc1
EC50 (Protein RecA): 11.2 µM (active)
AC50 [9]: 21.9 µM (active)

O=C(COc1ncnc2sccc12)N1CCN(C(=O)c2ccco2)CC1
EC50 [2]: > 120 µM (not active)
EC50 [3]: > 120 µM (not active)
EC50 [5]: > 120 µM (not active)

CN(C)c1ccc(-c2nc3n(n2)C(c2cccnc2)C2=C(O)CC(C)(C)CC2=N3)cc1 (stereo unspecified)
EC50 [4]: > 195 µM (not active)
AC50 (Cytochrome P450 2D6): 17.8 µM (inconclusive)
AC50 (Cytochrome P450 2C9): 28.2 µM (inconclusive)

Cc1ccc(NC(=O)CSc2nc3ccccc3c(=O)n2CCCC(=O)NCCCN2CCOCC2)cc1
IC50 [6]: > 47.1 µM (inactive)
EC50 [7]: > 53 µM (inactive)

CCC(NN1CCCCC1)=C1C(=O)NC(=O)NC1=O
EC50 [2]: > 120 µM (not active)
EC50 [3]: 11.9 µM (active)
EC50 [5]: 10.2 µM (active)

COc1ccc(NC(=O)N2CCN(c3nc(-c4cccc(OC)c4)cs3)CC2)cc1
CC50 [8]: 9.75 µM (active)

CC(=O)N(C(C)=O)c1ncnc2c1c(-c1ccc(Cl)cc1)nn2C(C)(C)C
EC50 [2]: 20.1 µM (active)
EC50 [10]: 4.21 µM (active)
EC50 [3]: 13.1 µM (active)
EC50 [5]: 25.1 µM (active)
EC50 [11]: 0.512 µM (active)

Cc1nn(Cc2ccccc2Cl)c(C)c1NC(=O)c1nc2ncccn2n1
IC50 [6]: > 47.1 µM (inactive)
EC50 [7]: > 53 µM (inactive)

CCc1cccc(NC(=O)c2cccc3c2C(=O)N(C2CCCCC2)C3)c1
CC50 [8]: 38.1 µM (active)

COC(=O)Nc1nn(-c2ccc(OC)cc2)c(=O)c(C#N)c1C
EC50 (Protein RecA): 6.31 µM (active)
AC50 [9]: 25.9 µM (active)

COCc1cc(O)n2nc(-c3ccccc3)cc2n1
IC50 [6]: > 47.1 µM (inactive)
EC50 [7]: > 53 µM (inactive)

Cc1ccc(C(=O)COc2cc(O)c3c(=O)cc(-c4ccccc4)oc3c2)cc1
IC50 [6]: > 47.1 µM (inactive)
EC50 [7]: > 53 µM (inactive)

CCOc1ccccc1N(C)C(=O)Cn1ncc2c3ccccc3nc-2c1O
IC50 [6]: > 47.1 µM (inactive)
EC50 [7]: > 53 µM (inactive)

CCOC(=O)c1ccc(N2CN(CC)CN=C2S)cc1
EC50 [2]: > 120 µM (not active)
EC50 [3]: > 120 µM (not active)
EC50 [5]: > 120 µM (not active)

CCOC(=O)c1[nH]c2ccccc2c1NC(=O)Nc1ccc(OC)cc1
IC50 [6]: > 47.1 µM (inactive)
EC50 [7]: > 53 µM (inactive)

CC(C)C(NC(=O)c1ccco1)C(=O)NC1CCCCCC1 (stereo unspecified)
IC50 [6]: > 47.1 µM (inactive)
EC50 [7]: > 53 µM (inactive)

O=C(COC(=O)c1ccncc1)Nc1cc(Cl)ccc1Cl
IC50 [6]: > 47.1 µM (inactive)
EC50 [7]: > 53 µM (inactive)

C/C(CC(=O)NCc1ccco1)=N\NC(=O)c1ccc([N+](=O)[O-])cc1Cl
EC50 (Protein RecA): 5.56 µM (active)
AC50 [9]: 10.2 µM (active)

Nc1ccc(C(=O)N/N=C/c2cn(Cc3ccc(F)cc3)c3ccccc23)cc1
EC50 [2]: 17.7 µM (active)
EC50 [3]: 10.1 µM (active)
EC50 [5]: 7.7 µM (active)

COC(=O)N/N=C\c1ccc(OC(=O)c2ccco2)cc1
EC50 (Protein RecA): 16.7 µM (active)
AC50 [9]: 44.6 µM (active)

Source: ChEMBL document CHEMBL1201862, “PubChem BioAssay data set” (2004)
